Patent publication US7608625B2, “Method for treating bruxism and bruxism-related diseases” (Eisai R & D Management Co., Ltd., priority 2003, dated 2009)
Structures can show the parent of a compound that is named as a salt.

What was measured:
bruxism patient [1] = experiment: Temporal muscle activity during sleep in bruxism patients, placebo or proton pump inhibitor (Experiment 2, double-blind); type: in vivo, human; conditions: 10 mg
Description: A catheter with a pH electrode was inserted into the test subject's esophagus 5 cm above the upper portion of the lower esophageal sphincter and pH was measured while the subject was asleep, while a disposable (bipolar) electrode was affixed to the skin at the front of the temporal muscle on one side. An amount of muscle activity during sleep was measured from 2.5 hours after falling asleep for a 40-minute period. At the same time, video and sound recordings were made that confirmed bruxism during sleep. […] In this Figure, when stable pH levels in the esophagus declined sharply, this was defined as an “decreased esophageal pH episode”. Measurement of temporal muscle activity during sleep in the bruxsim patient medicated with placebo or the proton pump inhibitor In a double-blind trial, test subjects were assigned to either medication with placebo or the proton pump inhibitor [sodium salt of rabeprazole (10 mg; brand name: […] (registered trademark), Eisai Co., Ltd.)] and, according to the method used in experiment 1, the amount of muscle activity during sleep in the front of the temporal muscle on one side was measured for a 4-hour period between 1 and 5 hours after falling asleep. Video and sound recordings were made at the same time that confirmed bruxism during sleep. […] A paired t test was used to test for significance, with P<0.05 defined as indicating a statistically significant difference.

bruxism patient [2] = experiment: Frequency of bruxism episodes during sleep in bruxism patients, placebo, PPI, H2RA or the combination (Experiment 3, double-blind); type: in vivo, human; conditions: FIG. 3; bruxism patients n=9; 10 mg of each drug; 4-hour period between 1 and 5 hours after falling asleep; vs placebo; paired t test, P<0.05 significant
Description: A catheter with a pH electrode was inserted into the test subject's esophagus 5 cm above the upper portion of the lower esophageal sphincter and pH was measured while the subject was asleep, while a disposable (bipolar) electrode was affixed to the skin at the front of the temporal muscle on one side. An amount of muscle activity during sleep was measured from 2.5 hours after falling asleep for a 40-minute period. At the same time, video and sound recordings were made that confirmed bruxism during sleep. […] In this Figure, when stable pH levels in the esophagus declined sharply, this was defined as an “decreased esophageal pH episode”. […] According to the methods used in experiment 1, the amount of muscle activity during sleep in the front of the temporal muscle on one side was measured for a 4-hour period between 1 and 5 hours after falling asleep. […]

COCCCOc1ccnc(C[S+]([O-])c2nc3ccccc3[nH]2)c1C (stereo not shown) [proton pump inhibitor, sodium salt of rabeprazole]
frequency of jaw motion accompanying rhythmical temporal muscle activity (bruxism episode) (bruxism patient [1]; FIG. 2(A), one bruxism patient, 4-hour period between 1 and 5 hours after falling asleep, compared to placebo): substantial decline | frequency of bruxism episodes per hour of sleep (bruxism patient [1]; FIG. 2(B), bruxism patients n=8, vs placebo, paired t test, ****P<0.0001): significantly reduces | duration of bruxism episodes per hour of sleep (bruxism patient [1]; FIG. 2(B), bruxism patients n=8, vs placebo, paired t test, ***P<0.001): significantly reduces | frequency of bruxism episodes per hour of sleep (bruxism patient [2]): significant reduction
